Source: patent US8552048B2, “Phosphoramidate alkylator prodrugs for the treatment of cancer” (Threshold Pharmaceuticals, Inc., priority 2006, dated 2013)

Test: Interspecies scaling (complex Dedrick analysis)
Settings: 70-kg human
Method: Pharmacokinetic studies were performed in male CD-1 (50 mg/kg i.p. or orally (p.o.)) or female nude mice (50 mg/kg i.v. or i.p.), male Sprague-Dawley rats (1, 5, 20 and 50 mg/kg i.v. and 100 mg/kg, p.o.), beagle dogs (20 mg/kg, i.v.) and cynomologus monkeys (20 mg/kg i.v.). Plasma TH302 concentrations were analyzed using a LC/MS method and the pharmacokinetic parameters computed using a noncompartmental method. Interspecies scaling was performed according to standard methods.
Parts A, B, and C, below tabulate the pharmacokinetics of TH302 when administered to rats, Dogs, and monkeys.

Cn1c(COP(=O)(NCCBr)NCCBr)cnc1[N+](=O)[O-] [TH302]
predicted Cl: 109 L/h | predicted Vss: 493 L
